Experimental data published in patent publication US20240424002A1, “METHODS AND COMPOSITIONS FOR TREATING MELANOMA” (THE REGENTS OF THE UNIVERSITY OF CALIFORNIA, priority 2021, published 2024).
Entries after “also recorded” stand apart in the source; their conditions may differ.

Tests used:
[1] = tested on: M249-VSR sublines; assay: Viability assay for inducing and protecting from ferroptosis; format: cell-based, human; settings: added in combination with RSL3; CellTiter-Glo 24 hr after treatment; FIG. 7B-C / 24B-C
Procedure: 6000 cells were seeded per well in 96-well plates and treated with ferroptosis inducing agents in combination with vehicle, GSH (Sigma, G4376), Trolox (Acros Organics, 218940010) or DFO (Sigma, D9533) next day. CellTiter-Glo luminescence was assessed 24 hr after treatment. For quantification, all values are normalized to vehicle conditions. Resistance cells were maintained in full dose of MAPK inhibitors throughout the treatments to keep the BRAF amplifications.

[2] = tested on: SC4 DM+ cells (M249-VSR single-cell-derived clone); assay: FISH assessment of HSRs after long-term DNA-PK inhibition; format: cell-based, human; settings: 5 μM NU7026 for 107 days vs DMSO 90 days; FIG. 2E
Procedure: (§1) Cells were blocked at metaphases by adding colcemid (KaryoMax, Thermo Fisher Scientific) at a final concentration of 0.05 μg/ml followed by incubation at 37° C. for 6-8 hours. Cells were then fixed using methanol:acetic acid (3:1). FISH slides were prepared by dropping fixed cells in a humid environment following the manufacture's protocol provided by Cytotest and Empire Genomics. FFPE xenograft tumor FISH slides were prepared by pepsin digestion followed by similar procedures of cell line FISH. Colored FISH images were taken and processed using confocal microscope Leica TCS SP8 X. Karyotype categorizations were based on the guidelines in FIG. 8. The fractions under certain images represent the number of cases for corresponding karyotype divided by total number of cases analyzed. If not otherwise mentioned, scale bars in FISH images represent 10 μm. Centromere probe names are abbreviated as CEN-x. DM numbers were quantified by directly counting the number of features in the FISH images or by using ecDNA quantification tool EcSeg (93). HSR lengths were quantified by dividing the probe area by chromosomal DAPI area in metaphases. The staining areas were calculated using ImageJ v1.53a. Cells fixed by the same procedure were also used for G-banding. G-banded metaphase spreads were photographed using 80i Nikon Microscope and Applied Spectral Imaging (ASI) Karyotyping system. […]

[3] = tested on: SC2 cells (M249-VSR HSR subclone); assay: FISH count of HSRs per cell after long-term DNA-PK inhibition; format: cell-based, human; settings: 5 μM NU7026 for three months vs DMSO; FIG. 2G
Procedure: as §1

[4] = tested on: M249-P, M249-VSR-DM and M249-VSR-HSR cells; assay: Dose response curve of ferroptosis inducing agents, viability by CellTiter-Glo; format: cell-based, human; settings: for sensitivity to RSL3 of M249-VSR after drug withdrawal: after VEM+SEL withdrawal, reduced BRAF copy number
Procedure: (§2) The dose response curves of ferroptosis inducing agents RSL3, Erastin and Ferroptocide were performed by seeding appropriate number of cells on day 0 in 96-well plates, […] luminescent assay. If not otherwise mentioned, resistance cells were maintained in full dose of MAPK inhibitors throughout the dose response experiments to keep the BRAF amplifications. Seeding density for each cell line was determined by using the same assay and the same experimental length with multiple cell number titrations. The dose series were generated by serial dilutions. All drugs used for dose response curves were dissolved in DMSO. DMSO toxicity was performed on the cell lines to determine the appropriate DMSO concentration (0.5%), which was used in all doses. The resulting values from viability assays were normalized to the zero-dose condition after subtracting background (wells with no cells). The curve fittings were performed by using three-parameter model in dre v3.0-1 R package (119).

[5] = tested on: A375-DTR cells vs parental; assay: as above; format: cell-based
Procedure: as §2

[6] = tested on: Mel888-DTR cells vs parental; assay: as above; format: cell-based
Procedure: as §2

[7] = tested on: M249-P and M249-VSR-DM cells; assay: Lipid ROS measurement by flow cytometry; format: cell-based, human; settings: FIG. 23A / 25A
[8] = tested on: M229P/R, M238P/R and SKMEL28P/R cell lines; settings: resistance through upregulation of RTKs, dedifferentiation; cited from earlier work

N[C@@H](CCC(=O)N[C@@H](CS)C(=O)NCC(=O)O)C(=O)O [GSH, reduced glutathione]
rescue of RSL3-induced cell death (percent viable cells) [1]: cell death can be rescued

O=c1cc(N2CCOCC2)oc2c1ccc1ccccc12 [NU7026]
frequency of cells displaying HSR integrations [2]: decreased the frequency of cells displaying HSR integrations | percentage of cells with multiple HSRs [3]: lower percentage of multiple HSRs

COC(=O)c1ccc([C@@H]2c3[nH]c4ccccc4c3C[C@@H](C(=O)OC)N2C(=O)CCl)cc1 [RSL3]
sensitivity to RSL3 of M249-VSR-DM and -HSR compared to M249-P ([4]; FIG. 7A, 72 hr treatment): substantially more sensitive | sensitivity to RSL3 of M249-VSR after drug withdrawal ([4]; FIG. 7A, 72 hr treatment): lose sensitivity reverting to levels closer to the parental cells | sensitivity to RSL3 of M249-VSR-DM and -HSR compared to M249-P ([4]; FIG. 24A, 24 hr treatment, CellTiter-Glo, resistant cells kept in full dose MAPK inhibitors): substantially more sensitive | sensitivity to RSL3 of M249-VSR after drug withdrawal ([4]; FIG. 24A, 24 hr treatment): lose sensitivity reverting to levels closer to the parental cells | RSL3 sensitivity of A375-DTR compared to parental ([5]; FIG. 7A, 72 hr treatment): increased RSL3 sensitivity | RSL3 sensitivity of A375-DTR compared to parental ([5]; FIG. 24A, 24 hr treatment): increased RSL3 sensitivity | RSL3 sensitivity of Mel888-DTR compared to parental ([6]; FIG. 7A, 72 hr treatment): increased RSL3 sensitivity | RSL3 sensitivity of Mel888-DTR compared to parental ([6]; FIG. 24A, 24 hr treatment): increased RSL3 sensitivity | lipid ROS levels upon RSL3 treatment ([7]; 1 μM RSL3, 24 hr, C11-BODIPY dye): increased lipid ROS levels; also recorded: increase in lipid ROS levels | sensitivity to RSL3 of resistant vs parental lines [8]: increased sensitivity

Cc1c(C)c2c(c(C)c1O)CCC(C)(C(=O)O)O2 (stereo not shown) [Trolox]
rescue of RSL3-induced cell death (percent viable cells) [1]: cell death can be rescued | protection against RSL3-induced lipid ROS ([7]; 150 μM Trolox with 1 μM RSL3, 24 hr): protected; also recorded: protects against RSL3-induced lipid ROS

C[C@@H]1CC[C@@]23C[C@H](O)C(=O)[C@@]2(O)[C@]1(C)[C@H](OC(=O)CCl)C[C@@H](C1=CCn2c(=O)n(-c4ccccc4)c(=O)n2C1)[C@@H]3C [ferroptocide]
sensitivity of BRAF-amplified M249 dual MAPKi-resistant cells compared to parental ([4]; FIG. 23B, M249-VSR-DM and -HSR, 72 hr treatment, CellTiter-Glo): sensitive
